Earlier results in patent US20220362213A1, “METHODS FOR TREATING POST ENDOSCOPIC RETROGRADE CHOLANGIOPANCREATOGRAPHY PANCREATITIS” (priority 2021, published 2022).

Experiments:
post-ERCP pancreatitis [1] = conditions: for preventing post-ERCP pancreatitis: two large controlled trials, pharmacologic prevention in high-risk patients
post-ERCP pancreatitis [2] = conditions: single-dose rectal; meta-analysis of preliminary studies

Row | Compound | preventing post-ERCP pancreatitis (post-ERCP pancreatitis [1]) | protective effects in post-ERCP pancreatitis (post-ERCP pancreatitis [2]) | further results
1 | C[C@@H](O)[C@@H]1NC(=O)[C@H](CCCCN)NC(=O)[C@@H](Cc2c[nH]c3ccccc23)NC(=O)[C@H](Cc2ccccc2)NC(=O)[C@@H](NC(=O)[C@H](N)Cc2ccccc2)CSSC[C@@H](C(=O)N[C@H](CO)[C@@H](C)O)NC1=O [octreotide] | ineffective | – | hyperamylasemia (post-ERCP pancreatitis [1]; after ERCP): reduces hyperamylasemia; clinical course of post-ERCP pancreatitis (post-ERCP pancreatitis [1]; human, in vivo): has not been shown to alter the clinical course
2 | secretin | – | – | incidence of post-ERCP pancreatitis (post-ERCP pancreatitis [1]; retrospective review of 4833 ERCP procedures, patients without pancreas divisum): might decrease the incidence
3 | O=C(O)Cc1ccccc1Nc1c(Cl)cccc1Cl [diclofenac] | – | benefit | –
4 | COc1ccc2c(c1)c(CC(=O)O)c(C)n2C(=O)c1ccc(Cl)cc1 [indomethacin] | – | benefit | –
5 | CCOC(=O)c1ccc(OC(=O)CCCCCNC(=N)N)cc1 [gabexate] | ineffective | – | reducing the frequency of post-ERCP pancreatitis (post-ERCP pancreatitis [1]; prophylaxis, meta-analysis of 28 clinical trials): effective
